Data as given in article PMC9329436, “Optimization of the 4-anilinoquin(az)oline scaffold as epidermal growth factor receptor (EGFR) inhibitors for chordoma utilizing a toxicology profiling assay platform” (Scientific Reports, 2022).
pIC50: −log10 of the molar value.

Each compound was assayed on U-CH1 chordoma cell line (assay: Cell viability assay (alamarBlue, 72 h), U-CH1). Conditions: n = 4, 72 h.
Type: cell-based, human
Description: (§1) Chordoma cell lines were cultured as described previously[10],[12],[33],[34]. Briefly, U-CH1 and U-CH2 cell lines were cultured in 4:1 IMDM:RPMI medium supplemented with 10% fetal bovine serum (FBS) and 1% penicillin/streptomycin in gel-coated flasks. […] CH22, UM-Chor1, U-CH12, and U-CH7 cell lines were cultured in RPMI medium supplemented with 10% FBS and 1% penicillin/streptomycin. The cell lines all undergo regular mycoplasma screening.
(§2) Cells were seeded in 384 well plates and were treated with test compound in quadruplicate 24 h after plating. Cell viability was assessed at 72 h using alamarBlue (ThermoFisher, USA). […] IC50 values were determined by four-parameter nonlinear regression analyses using GraphPad Prism™ version 8 software (San Diego, CA).
In the case of `C#Cc1cccc(Nc2c(C#N)cnc3ccc(Cl)cc23)c1` [Compound 26], the pIC50 was 4.85. `C#Cc1cccc(Nc2c(C#N)cnc3ccc(Br)cc23)c1` [Compound 27] was tested, and the pIC50 was 4.66. With `C#Cc1cccc(Nc2c(C#N)cnc3ccc(S(C)(=O)=O)cc23)c1` [Compound 29] the pIC50 was 4.04. For `C#Cc1cccc(Nc2c(C#N)cnc3cc(Cl)ccc23)c1` [Compound 30], the pIC50 was < 4.00. In the case of `C#Cc1cccc(Nc2c(C#N)cnc3cc(Br)ccc23)c1` [Compound 31], the pIC50 was < 4.00. With `C#Cc1cccc(Nc2c(C#N)cnc3cc(OC)ccc23)c1` [Compound 33] the pIC50 was 5.39.

The compounds below were run on U-CH2 chordoma cell line (assay: Cell viability assay (alamarBlue, 72 h), U-CH2). Conditions: n = 4, 72 h.
Type: cell-based, human
Description: as §1, §2
In the case of `C#Cc1cccc(Nc2c(C#N)cnc3ccc(Cl)cc23)c1` [Compound 26], the pIC50 was 4.40. `C#Cc1cccc(Nc2c(C#N)cnc3ccc(Br)cc23)c1` [Compound 27] gave a pIC50 of 4.52. `C#Cc1cccc(Nc2c(C#N)cnc3ccc(S(C)(=O)=O)cc23)c1` [Compound 29] was tested, and the pIC50 was 4.28. `C#Cc1cccc(Nc2c(C#N)cnc3cc(Cl)ccc23)c1` [Compound 30] was tested, and the pIC50 was < 4.00. `C#Cc1cccc(Nc2c(C#N)cnc3cc(Br)ccc23)c1` [Compound 31] was tested, and the pIC50 was < 4.00. For `C#Cc1cccc(Nc2c(C#N)cnc3cc(OC)ccc23)c1` [Compound 33], the pIC50 was 4.40.

What follows are compounds tested against EGFR (Homo sapiens, UniProt P00533) (assay: ProQinase in-cell EGFR assay (EGFR phosphorylation in A431 cells)). Conditions: ProQinase in-cell EGFR assay, A431 cells, n = 1.
EGFR, sequence (P00533 25-1210): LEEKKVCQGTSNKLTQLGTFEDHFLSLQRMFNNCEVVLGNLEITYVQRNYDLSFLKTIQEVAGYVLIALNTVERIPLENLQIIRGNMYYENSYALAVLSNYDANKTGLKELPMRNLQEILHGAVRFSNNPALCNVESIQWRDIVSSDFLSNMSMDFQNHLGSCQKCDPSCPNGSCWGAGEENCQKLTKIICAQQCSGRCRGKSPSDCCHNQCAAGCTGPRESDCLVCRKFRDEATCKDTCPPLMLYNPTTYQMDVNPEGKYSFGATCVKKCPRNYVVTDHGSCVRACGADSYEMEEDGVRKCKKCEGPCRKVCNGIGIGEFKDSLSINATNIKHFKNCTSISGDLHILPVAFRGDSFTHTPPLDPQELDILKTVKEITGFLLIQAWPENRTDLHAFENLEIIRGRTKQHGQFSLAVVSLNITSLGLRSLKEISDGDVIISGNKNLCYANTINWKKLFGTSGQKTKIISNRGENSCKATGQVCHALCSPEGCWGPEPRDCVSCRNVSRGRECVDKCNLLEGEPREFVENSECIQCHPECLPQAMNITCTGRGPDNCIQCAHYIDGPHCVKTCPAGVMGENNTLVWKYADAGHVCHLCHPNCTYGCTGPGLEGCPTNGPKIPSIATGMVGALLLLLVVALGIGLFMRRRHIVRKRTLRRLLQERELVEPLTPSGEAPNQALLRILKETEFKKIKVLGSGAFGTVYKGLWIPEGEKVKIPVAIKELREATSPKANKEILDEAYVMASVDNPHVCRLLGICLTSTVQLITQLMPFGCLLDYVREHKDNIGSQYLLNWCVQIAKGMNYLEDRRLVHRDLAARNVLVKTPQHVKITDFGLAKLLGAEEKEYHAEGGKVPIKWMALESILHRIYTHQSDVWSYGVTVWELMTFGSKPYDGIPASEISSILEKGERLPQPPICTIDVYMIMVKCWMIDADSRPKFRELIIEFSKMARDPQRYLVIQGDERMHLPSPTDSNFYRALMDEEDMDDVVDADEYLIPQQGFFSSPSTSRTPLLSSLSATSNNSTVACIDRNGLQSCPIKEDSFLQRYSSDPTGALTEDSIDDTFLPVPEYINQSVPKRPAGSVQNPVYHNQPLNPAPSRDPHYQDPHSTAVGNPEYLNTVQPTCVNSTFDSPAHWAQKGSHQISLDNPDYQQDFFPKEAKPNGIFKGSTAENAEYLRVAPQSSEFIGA
Type: cell-based
Parameters: This cell line endogenously expresses a high level of EGFR; endogenous in cells; host or cells: A431
Text: In addition, we ran an EGFR in-cell target engagement assay, measuring in-cell EGFR phosphorylation, using the human epidermoid carcinoma cell line A431. This cell line endogenously expresses a high level of EGFR, and stimulation of these cells with human epidermal growth factor (EGF) results in receptor tyrosine autophosphorylation.
In the case of `C#Cc1cccc(Nc2ncnc3cc(F)c(F)cc23)c1` [Compound 6, N-(3-ethynylphenyl)-6,7-difluoroquinazolin-4-amine], the pIC50 was 4.92.

These compounds were tested on HL60 cells (assay: AsedaSciences SYSTEMETRIC Cell Health Screen (flow cytometry toxicity profiling)). Conditions: SYSTEMETRIC Cell Health Screen; assay n=2.
In short: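 Risk scores derive from a logistic-regression ML classifier comparing flow-cytometric stress phenotypes with those of 300 reference compounds of known high or low human risk. Phenotypes: light scatter plus fluorescent physiological dyes, twelve parameters, no gating. Compounds tested 5 nM–100 µM (3× steps, duplicate) on HL60 cells, 4 h, 37 °C.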
`C#Cc1cccc(Nc2c(C#N)cnc3ccc(Cl)cc23)c1` [Compound 26] was tested, and the “Cell Health Toxcity Profile CC (DyeCycle Violet)” value (“Cell Health Toxcity Profile CC” for short) was 0.93, the “Cell Health Toxcity Profile CM (Cell morphology)” value was 1.00 and the “Cell Health Toxcity Profile CMI (Cell membrane integrity)” value (from here on “Cell Health Toxcity Profile CMI”) was 1.00. For the same compound, the “Cell Health Toxcity Profile GSH (Glutathione)” value (shortened to “Cell Health Toxcity Profile GSH”) was 0.99, the “Cell Health Toxcity Profile MMP (Mitochondrial membrane depolarization)” value (“Cell Health Toxcity Profile MMP” below) was 0.99 and the “Cell Health Toxcity Profile NMI1 (Nuclear membrane integrity 1)” value (“Cell Health Toxcity Profile NMI1” below) was 0.98. For the same compound, the “Cell Health Toxcity Profile NMI2 (Nuclear membrane integrity 2)” value (from here on “Cell Health Toxcity Profile NMI2”) was 0.97 and the “Cell Health Toxcity Profile ROS (Reactive superoxide species)” value (shortened to “Cell Health Toxcity Profile ROS”) was 1.00. For `C#Cc1cccc(Nc2c(C#N)cnc3ccc(Br)cc23)c1` [Compound 27], the “Cell Health Toxcity Profile CC” value was 0.98, the “Cell Health Toxcity Profile CM (Cell morphology)” value was 1.00 and the “Cell Health Toxcity Profile CMI” value was 1.00. The “Cell Health Toxcity Profile GSH” value was 0.98, the “Cell Health Toxcity Profile MMP” value was 0.96 and the “Cell Health Toxcity Profile NMI1” value was 0.32. For the same compound, the “Cell Health Toxcity Profile NMI2” value was 0.98 and the “Cell Health Toxcity Profile ROS” value was 1.00. With `C#Cc1cccc(Nc2c(C#N)cnc3ccc(S(C)(=O)=O)cc23)c1` [Compound 29] the “Cell Health Toxcity Profile CC” value was 0.071, the “Cell Health Toxcity Profile CM (Cell morphology)” value was 0.003 and the “Cell Health Toxcity Profile CMI” value was 0.037. The “Cell Health Toxcity Profile GSH” value was 0.039, the “Cell Health Toxcity Profile MMP” value was 0.021 and the “Cell Health Toxcity Profile NMI1” value was 0.18. For the same compound, the “Cell Health Toxcity Profile NMI2” value was 0.009 and the “Cell Health Toxcity Profile ROS” value was 0.046. In the case of `C#Cc1cccc(Nc2c(C#N)cnc3cc(Cl)ccc23)c1` [Compound 30], the “Cell Health Toxcity Profile CC” value was 0.17, the “Cell Health Toxcity Profile CM (Cell morphology)” value was 0.31 and the “Cell Health Toxcity Profile CMI” value was 0.25. The “Cell Health Toxcity Profile GSH” value was 0.065, the “Cell Health Toxcity Profile MMP” value was 0.080 and the “Cell Health Toxcity Profile NMI1” value was 0.69. The “Cell Health Toxcity Profile NMI2” value was 0.041 and the “Cell Health Toxcity Profile ROS” value was 0.44. `C#Cc1cccc(Nc2c(C#N)cnc3cc(Br)ccc23)c1` [Compound 31] was tested, and the “Cell Health Toxcity Profile CC” value was 0.92, the “Cell Health Toxcity Profile CM (Cell morphology)” value was 0.95 and the “Cell Health Toxcity Profile CMI” value was 0.88. The “Cell Health Toxcity Profile GSH” value was 0.92, the “Cell Health Toxcity Profile MMP” value was 0.84 and the “Cell Health Toxcity Profile NMI1” value was 0.45. The “Cell Health Toxcity Profile NMI2” value was 0.34 and the “Cell Health Toxcity Profile ROS” value was 0.87. `C#Cc1cccc(Nc2c(C#N)cnc3cc(OC)ccc23)c1` [Compound 33] was tested, and the “Cell Health Toxcity Profile CC” value was 0.81, the “Cell Health Toxcity Profile CM (Cell morphology)” value was 0.97 and the “Cell Health Toxcity Profile CMI” value was 0.90. The “Cell Health Toxcity Profile GSH” value was 0.78, the “Cell Health Toxcity Profile MMP” value was 0.22 and the “Cell Health Toxcity Profile NMI1” value was 0.20. The “Cell Health Toxcity Profile NMI2” value was 0.16 and the “Cell Health Toxcity Profile ROS” value was 0.68.

Same assay, conditions: SYSTEMETRIC Cell Health Screen; classifier output; assay n=2
For `C#Cc1cccc(Nc2c(C#N)cnc3ccc(Cl)cc23)c1` [Compound 26], the “Cell Health Toxcity Profile CHI” value was 0.83. In the case of `C#Cc1cccc(Nc2c(C#N)cnc3ccc(Br)cc23)c1` [Compound 27], the “Cell Health Toxcity Profile CHI” value was 0.75. With `C#Cc1cccc(Nc2c(C#N)cnc3ccc(S(C)(=O)=O)cc23)c1` [Compound 29] the “Cell Health Toxcity Profile CHI” value was 0.16. `C#Cc1cccc(Nc2c(C#N)cnc3cc(Cl)ccc23)c1` [Compound 30] was tested, and the “Cell Health Toxcity Profile CHI” value was 0.35. `C#Cc1cccc(Nc2c(C#N)cnc3cc(Br)ccc23)c1` [Compound 31] was tested, and the “Cell Health Toxcity Profile CHI” value was 0.59. `C#Cc1cccc(Nc2c(C#N)cnc3cc(OC)ccc23)c1` [Compound 33] was tested, and the “Cell Health Toxcity Profile CHI” value was 0.44.
